{
  "source": "ChEMBL document CHEMBL1132680",
  "about": "“A \"cephalosporin-like\" cyclic depsipeptide: synthesis and reaction with beta-lactam-recognizing enzymes” (Bioorg Med Chem Lett, 1999)",
  "data": [
    {"experiment": "Km against class A TEM beta-lactamase catalyzed lactone hydrolysis", "type": "ADME", "units": {"Km": "µM"}, "values": [
      {"smiles": "O=C(Cc1ccccc1)N[C@H]1Cc2cccc(C(=O)O)c2OC1=O", "Km": 53},
      {"smiles": "O=C(Cc1ccccc1)N[C@@H](Cc1cccc(C(=O)O)c1O)B(O)O", "Km": "> 1000"},
      {"smiles": "CC(=O)OCC1=C(C(=O)O)N2C(=O)[C@@H](NC(=O)Cc3cccs3)[C@H]2SC1", "note": "[CEPHALOTHIN]", "Km": 200}
    ]},
    {"experiment": "Kcat against class C P99 beta-lactamase catalyzed lactone hydrolysis", "type": "ADME", "units": {"k cat": "s⁻¹"}, "values": [
      {"smiles": "O=C(Cc1ccccc1)N[C@H]1Cc2cccc(C(=O)O)c2OC1=O", "k cat": 5.4},
      {"smiles": "O=C(Cc1ccccc1)N[C@@H](Cc1cccc(C(=O)O)c1O)B(O)O", "k cat": 5.6},
      {"smiles": "CC(=O)OCC1=C(C(=O)O)N2C(=O)[C@@H](NC(=O)Cc3cccs3)[C@H]2SC1", "note": "[CEPHALOTHIN]", "k cat": 200}
    ]},
    {"experiment": "Km against class A PCI beta-lactamase catalyzed lactone hydrolysis", "type": "ADME", "units": {"Km": "µM"}, "values": [
      {"smiles": "O=C(Cc1ccccc1)N[C@H]1Cc2cccc(C(=O)O)c2OC1=O", "Km": 0.304},
      {"smiles": "O=C(Cc1ccccc1)N[C@@H](Cc1cccc(C(=O)O)c1O)B(O)O", "Km": 15},
      {"smiles": "CC(=O)OCC1=C(C(=O)O)N2C(=O)[C@@H](NC(=O)Cc3cccs3)[C@H]2SC1", "note": "[CEPHALOTHIN]", "Km": "≤ 1"}
    ]},
    {"experiment": "Kcat/Km against class A TEM beta-lactamase catalyzed lactone hydrolysis", "type": "ADME", "units": {"Ratio": "M⁻¹ s⁻¹"}, "values": [
      {"smiles": "O=C(Cc1ccccc1)N[C@H]1Cc2cccc(C(=O)O)c2OC1=O", "Ratio": 39000},
      {"smiles": "O=C(Cc1ccccc1)N[C@@H](Cc1cccc(C(=O)O)c1O)B(O)O", "Ratio": 1200},
      {"smiles": "CC(=O)OCC1=C(C(=O)O)N2C(=O)[C@@H](NC(=O)Cc3cccs3)[C@H]2SC1", "note": "[CEPHALOTHIN]", "Ratio": 600000}
    ]},
    {"experiment": "Kcat/Km against class C P99 beta-lactamase catalyzed lactone hydrolysis", "type": "ADME", "units": {"Ratio": "M⁻¹ s⁻¹"}, "values": [
      {"smiles": "O=C(Cc1ccccc1)N[C@H]1Cc2cccc(C(=O)O)c2OC1=O", "Ratio": 8700},
      {"smiles": "O=C(Cc1ccccc1)N[C@@H](Cc1cccc(C(=O)O)c1O)B(O)O", "Ratio": 19000},
      {"smiles": "CC(=O)OCC1=C(C(=O)O)N2C(=O)[C@@H](NC(=O)Cc3cccs3)[C@H]2SC1", "note": "[CEPHALOTHIN]", "Ratio": 22000000}
    ]},
    {"experiment": "Kcat/Km against class A PCI beta-lactamase catalyzed lactone hydrolysis", "type": "ADME", "values": [
      {"smiles": "O=C(Cc1ccccc1)N[C@H]1Cc2cccc(C(=O)O)c2OC1=O", "Ratio": "1.55 M⁻¹ s⁻¹"},
      {"smiles": "O=C(Cc1ccccc1)N[C@@H](Cc1cccc(C(=O)O)c1O)B(O)O", "Ratio": "1.6 M⁻¹ s⁻¹"},
      {"smiles": "CC(=O)OCC1=C(C(=O)O)N2C(=O)[C@@H](NC(=O)Cc3cccs3)[C@H]2SC1", "note": "[CEPHALOTHIN]", "Ratio": ">= 1000 M-1 s-1"}
    ]},
    {"experiment": "Kcat against class A TEM beta-lactamase catalyzed lactone hydrolysis", "type": "ADME", "units": {"k cat": "s⁻¹"}, "values": [
      {"smiles": "O=C(Cc1ccccc1)N[C@H]1Cc2cccc(C(=O)O)c2OC1=O", "k cat": 2.07},
      {"smiles": "O=C(Cc1ccccc1)N[C@@H](Cc1cccc(C(=O)O)c1O)B(O)O", "k cat": "> 1.2"},
      {"smiles": "CC(=O)OCC1=C(C(=O)O)N2C(=O)[C@@H](NC(=O)Cc3cccs3)[C@H]2SC1", "note": "[CEPHALOTHIN]", "k cat": 120}
    ]},
    {"experiment": "Km against class C P99 beta-lactamase catalyzed lactone hydrolysis", "type": "ADME", "units": {"Km": "µM"}, "values": [
      {"smiles": "O=C(Cc1ccccc1)N[C@H]1Cc2cccc(C(=O)O)c2OC1=O", "Km": 620},
      {"smiles": "O=C(Cc1ccccc1)N[C@@H](Cc1cccc(C(=O)O)c1O)B(O)O", "Km": 290},
      {"smiles": "CC(=O)OCC1=C(C(=O)O)N2C(=O)[C@@H](NC(=O)Cc3cccs3)[C@H]2SC1", "note": "[CEPHALOTHIN]", "Km": 9}
    ]},
    {"experiment": "Kcat against class A PCI beta-lactamase catalyzed lactone hydrolysis", "type": "ADME", "units": {"k cat": "s⁻¹"}, "values": [
      {"smiles": "O=C(Cc1ccccc1)N[C@H]1Cc2cccc(C(=O)O)c2OC1=O", "k cat": 0.0047},
      {"smiles": "O=C(Cc1ccccc1)N[C@@H](Cc1cccc(C(=O)O)c1O)B(O)O", "k cat": 0.024},
      {"smiles": "CC(=O)OCC1=C(C(=O)O)N2C(=O)[C@@H](NC(=O)Cc3cccs3)[C@H]2SC1", "note": "[CEPHALOTHIN]", "k cat": 0.001}
    ]}
  ]
}
